Experimental data taken from US12018021B2 (UCB Biopharma SRL, priority 2018, dated 2024).
Where a name gives a salt, the structure may show the parent alone.

Target: IgE-Tb / FcεRIα-Y131A-AF488 (Homo sapiens, UniProt P01854)
Test: IgE-Tb / FcεRIα-Y131A-AF488 FRET assay (protocol for examples 1 to 233)
Type: binding
Conditions: examples 1 to 233: 5 nM IgE-Tb, 25 nM FcεRIα-Y131A-AF488, incubated 2 hours at room temperature; read-out: Y131A FRET IC50 range
Procedure: For examples 1 to 233, the assay was conducted according to the following: Each assay reaction was conducted in a volume of 25 μl in a 384-well half-volume plate. 10 point compound serial dilutions (3-fold) were generated in DMSO at a concentration of ×50 that of the final assay concentration (FAC). Compound solutions were then prepared by IgE-Tb diluting 10-fold in assay buffer. For the assay, 5 μl of diluted compound was added to 10 μl of, followed by addition of 10 μl FcεRIα-Y131A-AF488. FRET reagents FACs were 5 nM IgE-Tb, 25 nM FcεRIα-Y131A-AF488. Usually the top FAC of compound in the assay was 10 μM. The final DMSO concentration was 2%. The minimum signal (MIN) was measured by adding 5l unlabelled FcεRIα at 1 μM (FAC=200 nM) to the FRET reagents. The maximum FRET signal (MAX) was measured in wells containing FRET reagents but no compound. The assay was incubated for 2 hours at room temperature, protected from light and evaporation, and with gentle agitation.
Measurement of FRET for each well was carried out by exciting at 330 nm and measuring emission at 495/520 nm using an Envision plate reader (Perkin Elmer). FRET ratio was calculated as follows: Emission at 520/Emission at 495×1000.
The FRET ratio was used for the data analysis.
Z′ was calculated as follows (σ=standard deviation and μ=mean): 1−((3×σMAX)+(3×σMIN))/(μMAX−μMIN)
Z′ above 0.5 was considered a good assay.
Background signal (MIN) was subtracted from all wells. Using the background subtracted values, the percent inhibition by compound in each test-well was calculated as follows: 100−Test-well FRET ratio/MAX FRET ratio×100.
Percent inhibition was plotted against compound concentration. IC50 values for each compound were determined using four parameter logistic fit model using the XLFIT5 software package.

Sequence of IgE-Tb / FcεRIα-Y131A-AF488 (P01854 1-427 limits assumed, stated change not applied): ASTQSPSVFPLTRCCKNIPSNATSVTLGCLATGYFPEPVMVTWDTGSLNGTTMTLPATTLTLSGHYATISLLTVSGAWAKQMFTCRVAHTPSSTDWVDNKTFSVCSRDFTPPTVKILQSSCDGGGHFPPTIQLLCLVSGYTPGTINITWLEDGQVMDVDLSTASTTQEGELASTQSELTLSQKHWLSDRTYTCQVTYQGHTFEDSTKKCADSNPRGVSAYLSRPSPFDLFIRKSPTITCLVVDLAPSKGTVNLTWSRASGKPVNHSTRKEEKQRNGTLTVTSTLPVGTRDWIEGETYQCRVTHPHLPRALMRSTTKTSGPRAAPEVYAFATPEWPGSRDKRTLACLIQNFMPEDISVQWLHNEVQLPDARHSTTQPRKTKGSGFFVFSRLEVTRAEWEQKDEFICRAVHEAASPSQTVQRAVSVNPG

SMILES | IC50
CNC(=O)c1c(NC(=O)C2CC2C)sc2c1CCCC2 (mixture of isomers) [Example 102, N-Methyl-2-[(2-methylcyclopropanecarbonyl)amino]-4,5,6,7-tetrahydrobenzothiophene-3-carboxamide] | 10 to 50 µM
C[S+]([O-])NC1CCc2sc(NC(=O)C3CC3)c(C(=O)NCC3CC3)c2C1 (mixture of isomers) [Example 199, 2-(Cyclopropanecarbonylamino)-N-(cyclopropylmethyl)-5-(methanesulfinamido)-4,5,6,7-tetrahydrobenzothiophene-3-carboxamide] | 1 to 10 µM
C[C@@H]1CCc2sc(NC(=O)C3CC3)c(C(=O)NCC3CC3)c21 (single isomer, unassigned) [Example 13] | 1 to 10 µM
C[C@H]1CCc2sc(NC(=O)C3CC3)c(C(=O)NCC3CC3)c21 (single isomer, unassigned) [Example 14] | 10 to 50 µM
CC1CC1C(=O)Nc1sc2c(c1C(=O)NCC1CC1)CCCC2 (single isomer, unassigned) [Example 90, N-(cyclopropylmethyl)-2-[(2-methylcyclopropanecarbonyl)amino]-4,5,6,7-tetrahydrobenzothiophene-3-carboxamide] | 1 to 10 µM
O=C(Nc1sc2c(c1C(=O)N1CCC3(CC3)C1)CC(n1cnnc1Nc1cccnc1)CC2)C1CC1 (single isomer, unassigned) [Example 128] | < 1 µM
O=C(Nc1sc2c(c1C(=O)N1CCC3(CC3)C1)CC(n1cnnc1Nc1cccnc1)CC2)C1CC1 (single isomer, unassigned) [Example 129] | 1 to 10 µM
CCc1c(N[C@@H]2CCc3sc(NC(=O)C4CC4)c(C(=O)NCC4CC4)c3C2)c(=O)c1=O (single isomer, unassigned) [Example 189] | < 1 µM
CCc1c(N[C@H]2CCc3sc(NC(=O)C4CC4)c(C(=O)NCC4CC4)c3C2)c(=O)c1=O (single isomer, unassigned) [Example 190] | < 1 µM
CC(C)(C)CNc1nncn1C1CCc2sc(NC(=O)C3CC3)c(C(=O)NCC3CC3)c2C1 (stereo in doubt) [Example 105, (5S)-2-(Cyclopropanecarbonylamino)-N-(cyclopropylmethyl)-5-[3-(2,2-dimethylpropylamino)-1,2,4-triazol-4-yl]-4,5,6,7-tetrahydrobenzothiophene-3-carboxamide] | < 1 µM
CC(C)CNc1nncn1C1CCc2sc(NC(=O)C3CC3)c(C(=O)NCC3CC3)c2C1 (stereo in doubt) [Example 111, (5S)-2-(Cyclopropanecarbonylamino)-N-(cyclopropylmethyl)-5-[3-(isobutylamino)-1,2,4-triazol-4-yl]-4,5,6,7-tetrahydrobenzothiophene-3-carboxamide] | < 1 µM
Cc1cncc(Nc2nncn2C2CCc3sc(NC(=O)C4CC4)c(C(=O)NCC4CC4)c3C2)c1 (stereo in doubt) [Example 114, (5S)-2-(cyclopropanecarbonylamino)-N-(cyclopropylmethyl)-5-[3-[(5-methyl-3-pyridyl)amino]-1,2,4-triazol-4-yl]-4,5,6,7-tetrahydrobenzothiophene-3-carboxamide] | < 1 µM
O=C(NCC1CC1)c1c(NC(=O)C2CC2)sc2c1CC(n1cnnc1NCCN1CCOCC1)CC2 (stereo in doubt) [Example 118, (5S)-2-(Cyclopropanecarbonylamino)-N-(cyclopropylmethyl)-5-[3-(2-morpholinoethylamino)-1,2,4-triazol-4-yl]-4,5,6,7-tetrahydrobenzothiophene-3-carboxamide] | < 1 µM
CC(C)(C)OC(=O)Nc1cnnn1[C@H]1CCc2sc(NC(=O)C3CC3)c(C(=O)NCC3CC3)c2C1 (stereo in doubt) [Example 140, tert-Butyl N-[3-[2-(cyclopropanecarbonylamino)-3-(cyclopropylmethylcarbamoyl)-4,5,6,7-tetrahydrobenzothiophen-5-yl]triazol-4-yl]carbamate] | < 1 µM
Cc1cnc(Nc2nncn2C2CCc3sc(NC(=O)C4CC4)c(C(=O)NCC4CC4)c3C2)c(C)n1 (stereo in doubt) [Example 178, (5S)-2-(Cyclopropanecarbonylamino)-N-(cyclopropylmethyl)-5-[3-[(3,5-dimethylpyrazin-2-yl)amino]-1,2,4-triazol-4-yl]-4,5,6,7-tetrahydrobenzothiophene-3-carboxamide] | < 1 µM
CNC(=O)c1c(NC(=O)C2CC2)sc2c1CCSC2 [Example 1, 2-(Cyclopropanecarbonylamino)-N-methyl-5,7-dihydro-4H-thieno[2,3-c]thiopyran-3-carboxamide] | 1 to 10 µM
CNC(=O)c1c(NC(=O)C2CC2)sc2c1CCCO2 [Example 2, 6-(Cyclopropanecarbonylamino)-N-methyl-3,4-dihydro-2H-thieno[2,3-b]pyran-5-carboxamide] | 10 to 50 µM
O=C(NCC1CC1)c1c(NC(=O)C2CC2)sc2c1CNCC2 [Example 3, 2-(Cyclopropanecarbonylamino)-N-(cyclopropylmethyl)-4,5,6,7-tetrahydrothieno[3,2-c]pyridine-3-carboxamide; hydrochloride] | 10 to 50 µM
CS(=O)(=O)N1CCc2sc(NC(=O)C3CC3)c(C(=O)NCC3CC3)c2C1 [Example 4, 2-(Cyclopropanecarbonylamino)-N-(cyclopropylmethyl)-5-methylsulfonyl-6,7-dihydro-4H-thieno[3,2-c]pyridine-3-carboxamide] | 10 to 50 µM
CC(=O)N1CCc2sc(NC(=O)C3CC3)c(C(=O)NCC3CC3)c2C1 [Example 5, 5-Acetyl-2-(cyclopropanecarbonylamino)-N-(cyclopropylmethyl)-6,7-dihydro-4H-thieno[3,2-c]pyridine-3-carboxamide] | 10 to 50 µM
CS(=O)(=O)N1CCCc2c1sc(NC(=O)C1CC1)c2C(=O)NCC1CC1 [Example 6, 2-(Cyclopropanecarbonylamino)-N-(cyclopropylmethyl)-7-methylsulfonyl-5,6-dihydro-4H-thieno[2,3-b]pyridine-3-carboxamide] | 1 to 10 µM
CC(=O)N1CCCc2c1sc(NC(=O)C1CC1)c2C(=O)NCC1CC1 [Example 7, 7-Acetyl-2-(cyclopropanecarbonylamino)-N-(cyclopropylmethyl)-5,6-dihydro-4H-thieno[2,3-b]pyridine-3-carboxamide] | 10 to 50 µM
COCC(=O)N1CCc2sc(NC(=O)C3CC3)c(C(=O)NCC3CC3)c2C1 [Example 8, 2-(Cyclopropanecarbonylamino)-N-(cyclopropylmethyl)-5-(2-methoxyacetyl)-6,7-dihydro-4H-thieno[3,2-c]pyridine-3-carboxamide] | 10 to 50 µM
O=C(NCC1CC1)c1c(NC(=O)C2CC2)sc2c1CN(C(=O)Cc1ccccc1)CC2 [Example 9, 2-(Cyclopropanecarbonylamino)-N-(cyclopropylmethyl)-5-(2-phenylacetyl)-6,7-dihydro-4H-thieno[3,2-c]pyridine-3-carboxamide] | 10 to 50 µM
CC(C)(C)OC(=O)NCCN1CCc2sc(NC(=O)C3CC3)c(C(=O)NCC3CC3)c2C1 [Example 10, Tert-butyl N-[2-[2-(cyclopropanecarbonylamino)-3-(cyclopropylmethylcarbamoyl)-6,7-dihydro-4H-thieno[3,2-c]pyridin-5-yl]ethyl]carbamate] | 10 to 50 µM
